Measured values: patent US8119773B2, “Compositions and methods for facilitating heme-iron export from cells” (University of Washington, priority 2007, dated 2012)
Ends that are not written are not given here.

Legend:
[1] = target: T1, human FLVCR (Homo sapiens, UniProt Q9Y5Y0); test: ZnMP export from NRK cells engineered to express human FLVCR, with carrier protein; assay type: cell-based; conditions: NRK cells expressing human FLVCR; 37° C. for 90 min
T1 construct: expressed in transfected cells; host or cells: NRK (rat kidney) cells engineered to express human FLVCR
T1 sequence (Q9Y5Y0 1-555): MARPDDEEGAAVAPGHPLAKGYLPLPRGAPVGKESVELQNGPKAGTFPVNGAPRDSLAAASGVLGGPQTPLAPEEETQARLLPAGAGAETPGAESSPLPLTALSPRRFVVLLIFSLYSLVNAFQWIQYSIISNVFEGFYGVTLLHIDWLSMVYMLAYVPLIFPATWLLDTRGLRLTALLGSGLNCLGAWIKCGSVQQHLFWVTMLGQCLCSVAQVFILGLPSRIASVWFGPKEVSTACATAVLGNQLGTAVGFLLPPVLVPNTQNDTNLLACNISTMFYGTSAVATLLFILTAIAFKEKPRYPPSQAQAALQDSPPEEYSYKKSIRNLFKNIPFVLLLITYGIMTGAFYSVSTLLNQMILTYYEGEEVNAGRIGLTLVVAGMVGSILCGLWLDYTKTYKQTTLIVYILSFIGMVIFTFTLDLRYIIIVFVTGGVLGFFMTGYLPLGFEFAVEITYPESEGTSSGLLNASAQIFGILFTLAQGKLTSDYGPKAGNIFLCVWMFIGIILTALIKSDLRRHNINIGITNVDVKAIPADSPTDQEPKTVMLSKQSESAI
From the text: ZnMP and ^55Fe-hemin uptake and washout studies.
To gain insights into the structure and function of FLVCR, we first studied the export of zinc mesoporphyrin (ZnMP), a fluorescent heme analog that traffics similarly to heme and also blocks heme oxygenase activity.

[2] = heme binding; cited from earlier work
[3] = test system: bone marrow-derived macrophages; test: Ferritin studies in macrophages (ELISA) with or without hepcidin; assay type: cell-based, mouse; conditions: control and Flvcr-deleted macrophages exposed to FAC (10 μM Fe) 24 hours, washed, then 24 hours with hepcidin (1 ug/ul)
Protocol: FIGS. 4A-4B. FLVCR exports heme-iron from macrophages. (4A) Bone marrow-derived macrophages from control (striped) and mice in which Flvcr was deleted neonatally (black) were incubated in the absence or presence of FAC (10 μM Fe) for 24 or 48 hours, then washed; ferritin was measured by enzyme-linked immunosorbent (ELISA) (i). Cells were incubated with FAC for 24 hours (ii) or with IgG-coated red blood cells (RBC) for 90 min (iii), washed, then incubated for an additional 24 hours with or without hepcidin (1 ug/ul) and ferritin assayed. Data represent ferritin values in macrophages derived from two control and two deleted mice±SEM of triplicate samples per mouse. (4B) Model of macrophage heme-iron recycling.
Murine macrophage culture. Single-cell suspensions of mouse bone marrow were collected from mice 5 days after completing poly(I)-poly(C) treatment. […] Macrophages were defined by flow cytometry (Mac-1^+, f4/80^+, GR-1^−) and analyzed for ZnMP and ^55Fe-hemin export 10-24 days post in vivo deletion (after 5-19 days in culture).
Ferritin studies in macrophages. […] After 24 hrs, the samples were collected in lysis buffer (150 mM NaCl, 10 mM EDTA, 1% Triton X-100, 10 mM Tris pH 7.4), and complete protease inhibitor (Roche Diagnostics Co., Indianapolis, Ind.) and analyzed for ferritin levels as described (S16).

efficacy in inducing ZnMP export, relative to albumin [1]	Substance	Kd [2]	ferritin [3]
100 fold	hemopexin [Hpx]	< 1 pM	–
–	hepcidin (DTHFPICIFCCGCCHRSKCGMCCKT; ends and bridges not checked; cysteine pairing not given here; UniProt P81172 60-84, looked up)	–	increase equivalently
